# Measured values published in ChEMBL document CHEMBL5725292, “Substituted benzamides and methods of use thereof” (2017).
# Assay: Radioligand Binding Assay: Binding of this radioligand was preformed in 5 mL borosilicate glass test tubes at room temperature. Binding was initiated by adding membranes to increasing concentrations of [3H]compound in 100 mMNaCl, 20 mMTrisHCl, pH 7.4 buffer containing 0.01% w/v bovine serum albumin (BSA) for 18 h. Non-specific binding was determined in the presence of 1 uM unlabelled compound. …
# Design: species or system Homo sapiens
# Description: Radioligand Binding Assay: Binding of this radioligand was preformed in 5 mL borosilicate glass test tubes at room temperature. […] Non-specific binding was determined in the presence of 1 uM unlabelled compound. […] [3H]compound bound to filters was quantified by liquid scintillation counting.
row,SMILES,IC50
1,COC[C@H](c1cc(Cl)cc(Cl)c1)N1CCC[C@@H](Oc2cc(F)c(C(=O)NS(C)(=O)=O)cc2C2CC2)C1,6 nM
2,O=C(NS(O)(O)C1CC1)c1cc(C2CC2)c(CN2CCC(Oc3ccc(F)cc3Cl)CC2)cc1F,14 nM
